In US20230295118A1 (EnhancedBio Inc., priority 2022, published 2023):

Legend:
Format in all cases: cell-based
CDK6 = target: T1, CDK6 (Homo sapiens, UniProt Q00534); experiment: CDK6 degradation (DC50, Dmax)
T1 construct: endogenous in cells

CDK4 = target: T2, CDK4 (Homo sapiens, UniProt P11802); experiment: CDK4 degradation (DC50, Dmax)
T2 construct: endogenous in cells

[1] = system: mantle cell lymphoma cell (Mino or JeKo-1); experiment: Antiproliferative effect, MTS cell viability assay; settings: 72 h; for IC50: mantle cell lymphoma cell (Mino or JeKo-1), MTS assay, read-out: IC50 (anti-proliferation); for inhibition of cell proliferation of Mino cells: 0-1 μM, result in words
Outline: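 MTS read-out (formazan absorbance at 490 nm) after 72 h exposure of Mino cells to 0–1 μM compound (0.0001, 0.001, 0.01, 0.1, 1 μM). Palbociclib and abemaciclib served as positive controls.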

T1 sequence (Q00534 whole entry): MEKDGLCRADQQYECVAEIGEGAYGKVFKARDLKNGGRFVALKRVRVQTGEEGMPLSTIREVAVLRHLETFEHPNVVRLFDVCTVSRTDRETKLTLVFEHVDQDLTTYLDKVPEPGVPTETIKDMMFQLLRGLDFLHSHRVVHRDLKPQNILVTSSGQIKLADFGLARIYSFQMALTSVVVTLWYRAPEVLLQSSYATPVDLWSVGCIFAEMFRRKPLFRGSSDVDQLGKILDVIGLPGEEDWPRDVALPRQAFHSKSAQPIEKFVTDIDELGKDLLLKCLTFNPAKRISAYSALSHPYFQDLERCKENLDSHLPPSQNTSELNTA
T2 sequence (P11802 whole entry): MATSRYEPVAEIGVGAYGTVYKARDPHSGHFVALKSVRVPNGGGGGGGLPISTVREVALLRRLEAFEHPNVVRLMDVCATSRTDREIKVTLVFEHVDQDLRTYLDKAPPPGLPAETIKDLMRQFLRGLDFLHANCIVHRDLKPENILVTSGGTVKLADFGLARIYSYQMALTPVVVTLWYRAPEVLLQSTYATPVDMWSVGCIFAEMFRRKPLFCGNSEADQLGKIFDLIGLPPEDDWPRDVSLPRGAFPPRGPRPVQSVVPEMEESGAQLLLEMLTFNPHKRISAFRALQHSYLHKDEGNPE

Row | Structure (SMILES) | DC50 (CDK6) [nM] | Dmax (CDK6) [%] | DC50 (CDK4) [nM] | Dmax (CDK4) [%] | IC50 [1] [nM] | inhibition of cell proliferation of Mino cells [1]
1 | CC(=O)c1c(C)c2cnc(Nc3ccc(N4CCN(CC5CCN(C(=O)N6CCC(c7ccc8c(c7)C(=O)N(C7CCC(=O)NC7=O)C8=O)CC6)CC5)CC4)cn3)nc2n(C2CCCC2)c1=O (centres unmarked) [Compound 33, 5-(1-(4-((4-(6-((6-acetyl-8-cyclopentyl-5-methyl-7-oxo-7,8-dihydropyrido[2,3-d]pyrimidin-2-yl)amino)pyridin-3-yl)piperazin-1-yl)methyl)piperidine-1-carbonyl)piperidin-4-yl)-2-(2,6-dioxopiperidin-3-yl)isoindoline-1,3-dione] | > 200 | > 50 | > 200 | > 60 | 50 to 200 | 
2 | CC(=O)c1c(C)c2cnc(Nc3ccc(N4CCN(C5CCN(C(=O)N6CCC(N7CCN(c8ccc9c(c8)C(=O)N(C8CCC(=O)NC8=O)C9=O)CC7)CC6)CC5)CC4)cn3)nc2n(C2CCCC2)c1=O (centres unmarked) [Compound 88, 5-(4-(1-(4-(4-(6-((6-acetyl-8-cyclopentyl-5-methyl-7-oxo-7,8-dihydropyrido[2,3-d]pyrimidin-2-yl)amino)pyridin-3-yl)piperazin-1-yl)piperidine-1-carbonyl)piperidin-4-yl)piperazin-1-yl)-2-(2,6-dioxopiperidin-3-yl) isoindoline-1,3-dione] | > 200 | > 50 | > 200 | > 60 | > 200 | 
3 | Cc1nc2c(F)cc(-c3nc(Nc4ccc(CN5CCN(C(=O)C6CCN(c7ccc(C(=O)NC8CCC(=O)NC8=O)cc7)CC6)CC5)cn4)ncc3F)cc2n1C(C)C (centres unmarked) [Compound 155, N-(2,6-dioxopiperidin-3-yl)-4-(4-(4-((6-((5-fluoro-4-(4-fluoro-1-isopropyl-2-methyl-1H-benzo[d]imidazol-6-yl)pyrimidin-2-yl)amino)pyridin-3-yl)methyl)piperazine-1-carbonyl)piperidin-1-yl)benzamide] | > 200 | > 50 | 50 to 200 | > 50 | 50 to 200 | 
4 | CC(=O)c1c(C)c2cnc(Nc3ccc(N4CCN(C(=O)N5CCC(C6CCN(c7ccc8c(c7)CN(C7CCC(=O)NC7=O)C8=O)CC6)CC5)CC4)cn3)nc2n(C2CCCC2)c1=O (centres unmarked) [Compound 10, 3-(5-(1′-(4-(6-((6-acetyl-8-cyclopentyl-5-methyl-7-oxo-7,8-dihydropyrido[2,3-d]pyrimidin-2-yl)amino)pyridin-3-yl)piperazine-1-carbonyl)-[4,4′-bipiperidin]-1-yl)-1-oxoisoindolin-2-yl)piperidine-2,6-dione] | > 200 | > 50 | > 200 | > 50 | > 200 | 
5 | CC(=O)c1c(C)c2cnc(Nc3ccc(N4CCN(C(=O)N5CCC(CCN6CCC(c7ccc8c(c7)C(=O)N(C7CCC(=O)NC7=O)C8=O)CC6)CC5)CC4)cn3)nc2n(C2CCCC2)c1=O (centres unmarked) [Compound 29, 5-(1-(2-(1-(4-(6-((6-acetyl-8-cyclopentyl-5-methyl-7-oxo-7,8-dihydropyrido[2,3-d]pyrimidin-2-yl)amino)pyridin-3-yl)piperazine-1-carbonyl)piperidin-4-yl)ethyl)piperidin-4-yl)-2-(2,6-dioxopiperidin-3-yl)isoindoline-1,3-dione] | > 200 | > 50 | > 200 | > 50 | > 200 | 
6 | CC(=O)c1c(C)c2cnc(Nc3ccc(N4CCN(C(=O)N5CCN(CCC6CCN(c7ccc8c(c7)CN(C7CCC(=O)NC7=O)C8=O)CC6)CC5)CC4)cn3)nc2n(C2CCCC2)c1=O (centres unmarked) [Compound 24, 3-(5-(4-(2-(4-(4-(6-((6-acetyl-8-cyclopentyl-5-methyl-7-oxo-7,8-dihydropyrido[2,3-d]pyrimidin-2-yl)amino)pyridin-3-yl)piperazine-1-carbonyl)piperazin-1-yl)ethyl)piperidin-1-yl)-1-oxoisoindolin-2-yl)piperidine-2,6-dione] | > 200 | > 50 | > 200 | > 50 | > 200 | 

The next lines start with results.

Row | DC50 (CDK6) [nM] | Dmax (CDK6) [%] | DC50 (CDK4) [nM] | Dmax (CDK4) [%] | IC50 [1] [nM] | Structure (SMILES) | inhibition of cell proliferation of Mino cells [1]
7 | < 50 | > 80 | < 50 | > 80 | < 50 | Cc1nc2c(F)cc(-c3nc(Nc4ccc(CN5CCN(CC6CCCN(c7ccc(N8CCC(=O)NC8=O)cc7)C6)CC5)cn4)ncc3F)cc2n1C(C)C (centres unmarked) [Compound 110, 1-(4-(3-((4-((6-((5-fluoro-4-(4-fluoro-1-isopropyl-2-methyl-1H-benzo[d]imidazol-6-yl)pyrimidin-2-yl)amino)pyridin-3-yl)methyl)piperazin-1-yl)methyl)piperidin-1-yl)phenyl) dihydropyrimidine-2,4(1H,3H)-dione] | 
8 | 50 to 200 | > 80 | 50 to 200 | > 60 | < 50 | CC(=O)c1c(C)c2cnc(Nc3ccc(N4CCN(CCCCNc5ccc6c(c5)C(=O)N(C5CCC(=O)NC5=O)C6=O)CC4)cn3)nc2n(C2CCCC2)c1=O (centres unmarked) [Compound 53, 5-((4-(4-(6-((6-acetyl-8-cyclopentyl-5-methyl-7-oxo-7,8-dihydropyrido[2,3-d]pyrimidin-2-yl)amino)pyridin-3-yl)piperazin-1-yl)butyl)amino)-2-(2,6-dioxopiperidin-3-yl)isoindoline-1,3-dione] | 
9 | > 200 | > 60 | > 200 | > 60 | 50 to 200 | CC(=O)c1c(C)c2cnc(Nc3ccc(N4CCN(CCN5CCC(c6ccc7c(c6)C(=O)N(C6CCC(=O)NC6=O)C7=O)CC5)CC4)cn3)nc2n(C2CCCC2)c1=O (centres unmarked) [Compound 71, 5-(1-(2-(4-(6-((6-acetyl-8-cyclopentyl-5-methyl-7-oxo-7,8-dihydropyrido[2,3-d]pyrimidin-2-yl)amino)pyridin-3-yl)piperazin-1-yl)ethyl)piperidin-4-yl)-2-(2,6-dioxopiperidin-3-yl)isoindoline-1,3-dione] | 
10 | < 50 | > 60 | 50 to 200 | > 80 | < 50 | CC(=O)c1c(C)c2cnc(Nc3ccc(C4CCN(C(=O)C5CN(c6ccc7c(c6)CN(C6CCC(=O)NC6=O)C7=O)C5)CC4)cn3)nc2n(C2CCCC2)c1=O (centres unmarked) [Compound 130, 3-(5-(3-(4-(6-((6-acetyl-8-cyclopentyl-5-methyl-7-oxo-7,8-dihydropyrido[2,3-d]pyrimidin-2-yl)amino)pyridin-3-yl)piperidine-1-carbonyl)azetidin-1-yl)-1-oxoisoindolin-2-yl)piperidine-2,6-dione] | 
11 | < 50 | > 80 | < 50 | > 80 | < 50 | CC(=O)c1c(C)c2cnc(Nc3ccc(N4CCN(CCNc5ccc6c(c5)C(=O)N(C5CCC(=O)NC5=O)C6=O)CC4)cn3)nc2n(C2CCCC2)c1=O (centres unmarked) [Compound 47, 5-((2-(4-(6-((6-acetyl-8-cyclopentyl-5-methyl-7-oxo-7,8-dihydropyrido[2,3-d]pyrimidin-2-yl)amino)pyridin-3-yl)piperazin-1-yl)ethyl)amino)-2-(2,6-dioxopiperidin-3-yl)isoindoline-1,3-dione] | dose-dependent inhibition of cell proliferation
12 | < 50 | > 80 | < 50 | > 80 | < 50 | CC(=O)c1c(C)c2cnc(Nc3ccc(N4CCN(C(=O)C5CN(c6ccc7c(c6)C(=O)N(C6CCC(=O)NC6=O)C7=O)C5)CC4)cn3)nc2n(C2CCCC2)c1=O (centres unmarked) [Compound 121, 5-(3-(4-(6-((6-acetyl-8-cyclopentyl-5-methyl-7-oxo-7,8-dihydropyrido[2,3-d]pyrimidin-2-yl)amino)pyridin-3-yl)piperazine-1-carbonyl)azetidin-1-yl)-2-(2,6-dioxopiperidin-3-yl)isoindoline-1,3-dione] | 
13 | 50 to 200 | > 80 | 50 to 200 | > 80 | < 50 | Cc1nc2c(F)cc(-c3nc(Nc4ccc(CN5CCN(CCCNc6cccc7c6C(=O)N(C6CCC(=O)NC6=O)C7=O)CC5)cn4)ncc3F)cc2n1C(C)C (centres unmarked) [Compound 100, 2-(2,6-dioxopiperidin-3-yl)-4-((3-(4-((6-((5-fluoro-4-(4-fluoro-1 isopropyl-2-methyl-1H-benzo[d]imidazol-6-yl)pyrimidin-2-yl)amino)pyridin-3-yl)methyl)piperazin-1-yl)propyl)amino) isoindoline-1,3-dione] | dose-dependent inhibition of cell proliferation
14 | 50 to 200 | > 60 | 50 to 200 | > 50 | 50 to 200 | Cc1nc2c(F)cc(-c3nc(Nc4ccc(CC5CCN(C(=O)C6CN(c7ccc(NC8CCC(=O)NC8=O)cc7)C6)CC5)cn4)ncc3F)cc2n1C(C)C (centres unmarked) [Compound 146, 3-((4-(3-(4-((6-((5-fluoro-4-(4-fluoro-1-isopropyl-2-methyl-1H-benzo[d]imidazol-6-yl)pyrimidin-2-yl)amino)pyridin-3-yl)methyl)piperidine-1-carbonyl)azetidin-1-yl)phenyl)amino) piperidine-2,6-dione] | 
15 | 50 to 200 | > 60 | 50 to 200 | > 50 | 50 to 200 | CC(=O)c1c(C)c2cnc(Nc3ccc(N4CCN(CCC5CCN(c6ccc7c(c6)CN(C6CCC(=O)NC6=O)C7=O)CC5)CC4)cn3)nc2n(C2CCCC2)c1=O (centres unmarked) [Compound 70, 3-(5-(4-(2-(4-(6-((6-acetyl-8-cyclopentyl-5-methyl-7-oxo-7,8-dihydropyrido[2,3-d]pyrimidin-2-yl)amino)pyridin-3-yl)piperazin-1-yl)ethyl)piperidin-1-yl)-1-oxoisoindolin-2-yl) piperidine-2,6-dione] | 
